This assay concerns the target T1, human serum albumin (HSA) (Homo sapiens, UniProt P02768).
T1 construct: gene ALB; full-length, fatty acid and globulin-free HSA purified from serum
The assay can be described thus: ITC ([…]°C, pH […]), two sets of independent sites; confirmed by 1H NMR chemical shift titration (Kd1 […]). The format is binding.

T1 sequence (P02768 25-609): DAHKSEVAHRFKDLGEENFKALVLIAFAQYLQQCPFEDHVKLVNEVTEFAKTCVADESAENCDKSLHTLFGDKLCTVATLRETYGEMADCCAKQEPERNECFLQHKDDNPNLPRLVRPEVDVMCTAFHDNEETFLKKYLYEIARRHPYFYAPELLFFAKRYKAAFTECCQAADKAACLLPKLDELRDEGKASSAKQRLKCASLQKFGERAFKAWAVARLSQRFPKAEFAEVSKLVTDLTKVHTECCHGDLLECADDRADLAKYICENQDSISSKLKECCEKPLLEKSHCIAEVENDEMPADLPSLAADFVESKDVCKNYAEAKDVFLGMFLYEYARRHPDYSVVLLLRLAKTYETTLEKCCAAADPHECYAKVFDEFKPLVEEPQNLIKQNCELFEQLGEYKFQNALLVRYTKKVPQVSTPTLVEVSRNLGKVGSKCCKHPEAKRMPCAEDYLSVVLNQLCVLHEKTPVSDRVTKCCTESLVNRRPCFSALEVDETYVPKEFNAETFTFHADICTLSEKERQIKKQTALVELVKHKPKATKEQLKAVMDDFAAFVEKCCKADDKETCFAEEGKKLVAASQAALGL

For orientation: Kd means the concentration at which binding is half-saturated. In the case of `O=C(O[C@@H]1Cc2c(O)cc(O)cc2O[C@@H]1c1cc(O)c(O)c(O)c1)c1cc(O)c(O)c(O)c1` [epigallocatechin gallate], the Kd is 22 ± 4 µM.

For the origin of these results see publication PMC5484023, “Multi-site binding of epigallocatechin gallate to human serum albumin measured by NMR and isothermal titration calorimetry” (Bioscience Reports, 2017).
